In paper PMC12845078 (Pharmaceuticals, 2025):
Marks after values point to notes of the source that are not given here.

Assays:
[1] = Pharmacokinetics of MT, 6-HMT and CBD in SD rats (i.v. and oral); conditions: rats
Protocol: The drugs were dissolved in the same manner as described previously, with an administration volume of 5 mL/kg for all groups. Blood samples were collected at the time points of pre-administration and 0.033 (only for the intravenous administration group), 0.083, 0.25, 0.5, 0.75, 1, 1.5, 2, 4, 6, 8, and 12 h post-administration.
(§1) The column temperature was set at 40 °C.

[2] = Pharmacokinetics of MT, 6-HMT and CBD in beagles after oral administration; conditions: beagles, p.o.
Protocol: Twelve male healthy adult beagles (weighing 10 ± 2 kg) were randomly divided into two groups. […] The drugs were dissolved in a physiological saline solution containing 5% castor oil, with an administration volume of 2 mL/kg. Blood samples were collected at the time points of pre-administration and 0.083, 0.25, 0.5, 0.75, 1, 1.5, 2, 4, 6, 8, and 12 h post-administration.
as §1

[3] = Pharmacokinetics of MT and CBD in rats after pre-administration of ABT; conditions: both groups after ABT co-administration, all sampling time points; below lower limit of quantification
Protocol: Twelve SD rats were randomly divided into two groups. Both groups were first given an intragastric administration of 1-aminobenzotriazole (ABT) at a dose of 200 mg/kg. […] The administration volume for all groups was 5 mL/kg. […] Approximately 50 μL of venous blood were collected into heparin sodium anticoagulant tubes and placed on ice. The sample processing and storage methods were the same as described previously.
Subsequently, the resultant mixture was vortexed for 1 minute and centrifuged at 4 °C for 10 min at 18,800× g. […] The lowest limit of quantification (LLOQ) was established at 2 ng/mL.
Kromasil 100-5-C8 (2.1 × 50 mm) was selected for the separation of samples. The mobile phase consisted of solvent A (water with 0.1% formic acid and 5 mM ammonium acetate) and solvent B (methanol with 0.1% formic acid). […] The column temperature was set at 40 °C. The two eluents were 0.1% formic acid and 5 mM ammonium acetate in water (A) and 0.1% formic acid in methanol (B). […] The main mass spectrometry detection parameters were: dry gas 10 L/min, heated gas 10 L/min, collision gas 270 kPa, ion source temperature 300 °C, desolvation temperature 250 °C, and heating module temperature 400 °C.
Pharmacokinetic parameters: GraphPad Prism 10.1 software was utilized to draw the curves. Noncompartmental analysis was selected to calculate the major PK parameters, including clearance (CL), volume (V), half-life (t1/2), peak concentration (Cmax), and area under the curve (AUC), using WinNonlin 8.1.

COc1cc2c(CCNC(C)=O)c[nH]c2cc1O [6-HMT, 6-Hydroxymelatonin]
AUC(0–t) ([1]; i.v., MT + CBD (1 + 1) mg/kg): 33.63 (5.10) h × ng/mL | MRT(0–t) ([1]; i.v., MT + CBD (1 + 1) mg/kg): 0.38 (0.06) h | t1/2 ([1]; i.v., MT + CBD (1 + 1) mg/kg): 0.28 (0.04) h | AUC(0–1h) ([1]; p.o., MT + CBD (5 + 5) mg/kg): 77.02 (26.81) h × ng/mL | AUC(0–t) ([1]; p.o., MT + CBD (5 + 5) mg/kg): 110.2 (39.21) h × ng/mL | Cmax ([1]; p.o., MT + CBD (5 + 5) mg/kg): 125.1 (33.41) ng/mL | MRT(0–t) ([1]; p.o., MT + CBD (5 + 5) mg/kg): 0.88 (0.11) h | Tmax ([1]; p.o., MT + CBD (5 + 5) mg/kg): 0.33 (0.13) h | t1/2 ([1]; p.o., MT + CBD (5 + 5) mg/kg): 1.72 (1.48) h | AUC(0–1h) ([1]; p.o., MT + CBD (5 + 20) mg/kg): 48.98 (8.27) ** h × ng/mL | AUC(0–t) ([1]; p.o., MT + CBD (5 + 20) mg/kg): 123.2 (15.77) h × ng/mL | Cmax ([1]; p.o., MT + CBD (5 + 20) mg/kg): 64.17 (10.40) ** ng/mL | MRT(0–t) ([1]; p.o., MT + CBD (5 + 20) mg/kg): 2.37 (0.38) ** h | Tmax ([1]; p.o., MT + CBD (5 + 20) mg/kg): 0.33 (0.20) h | t1/2 ([1]; p.o., MT + CBD (5 + 20) mg/kg): 3.41 (1.90) h | AUC(0–1h) ([1]; p.o., MT + Vehicle 5 mg/kg): 90.04 (26.46) h × ng/mL | AUC(0–t) ([1]; p.o., MT + Vehicle 5 mg/kg): 125.2 (21.64) h × ng/mL | Cmax ([1]; p.o., MT + Vehicle 5 mg/kg): 145.6 (40.82) ng/mL | MRT(0–t) ([1]; p.o., MT + Vehicle 5 mg/kg): 1.41 (0.59) h | Tmax ([1]; p.o., MT + Vehicle 5 mg/kg): 0.25 (0) h | t1/2 ([1]; p.o., MT + Vehicle 5 mg/kg): 1.56 (0.90) h | AUC(0–t) ([2]; MT + CBD (3 + 3) mg/kg): 192.4 (72.83) h × ng/mL | AUC(0–∞) ([2]; MT + CBD (3 + 3) mg/kg): 245.7 (69.0) h × ng/mL | Cmax ([2]; MT + CBD (3 + 3) mg/kg): 62.9 (18.18) ng/mL | MRT(0–t) ([2]; MT + CBD (3 + 3) mg/kg): 2.94 (0.83) h | Tmax ([2]; MT + CBD (3 + 3) mg/kg): 0.58 (0.20) h | t1/2 ([2]; MT + CBD (3 + 3) mg/kg): 4.11 (1.69) h | ratio of AUC(0–t),6-HMT to AUC(0–t),MT with CBD, as percent of MT alone ([2]; MT + CBD (3 + 3) mg/kg vs MT 3 mg/kg): 26% | AUC(0–t) ([2]; MT + Vehicle 3 mg/kg): 179.7 (36.31) h × ng/mL | AUC(0–∞) ([2]; MT + Vehicle 3 mg/kg): 202.1 (46.02) h × ng/mL | Cmax ([2]; MT + Vehicle 3 mg/kg): 74.80 (10.94) ng/mL | MRT(0–t) ([2]; MT + Vehicle 3 mg/kg): 3.60 (0.81) h | Tmax ([2]; MT + Vehicle 3 mg/kg): 0.29 (0.10) h | t1/2 ([2]; MT + Vehicle 3 mg/kg): 3.33 (1.11) h | plasma concentration [3]: < 2 ng/mL
